PMC1361622 (2006)

Test system: construct 1 (consensus-type glmS ribozyme, A6 and A58) (RNA, ribozyme) GGUAAAUUAUAAAAGCGCCAGAACUACAGAAAUGUAGUUGACGAGGAGGAGGUUUAUCGAAUUUUCGGCGGAUGCCUCC
Assay: half-maximal kobs of ligand-dependent self-cleavage
Conditions: 20 mM Mg2+; 50 mM Tris-HCl pH 7.5, 23 °C; GlcN6P varied

N[C@H]1C(O)O[C@H](COP(=O)(O)O)[C@@H](O)[C@@H]1O (stereo partly shown)
apparent Kd: ~ 200 µM
